Where “and” joins values, the source holds several entries; their conditions need not be identical. Equal values may be shown once. Read-outs that look alike come from different tables or passages of the source.
Assays:
Jurkat T cells [1] = format: cell-based, human; details: for loss of membrane permeability (trypan blue incorporation): 8 hours
Method: The trypan blue exclusion assay was performed by injecting 10 μl of cell suspension containing 0.2% trypan blue dye into a hemoicytometer and counting. Numbers of cells that absorbed the dye and those that excluded the dye are counted, from which the percentage of non-viable cell number to total cell number is calculated.

Jurkat T cells [2] = assay: TUNEL assay (DNA strand breaks), Jurkat T cells; format: cell-based, human; details: 50 μM
Method: Terminal deoxynucleotidyl transferase-mediated UTP nick end labeling (TUNEL) was performed to determine the extent of DNA strand breaks. TUNEL assay was performed with an APO-Direct kit per the manufacturer's instructions. In brief, cells are fixed in 1% paraformaldehyde and ethanol at […] overnight and then permeabilized with Proteinase K. After permeabilization, Fluorescein conjugated dNTP's and TdT enzyme (Terminal Deoxynucleotidyl Transferase) are added to the cells. The TdT enzyme is then able to label free ends of DNA with Fluorescein conjugated dNTPs that could then be detected by flow cytometry.
The assay was performed following manufacturer's instruction using the APO-Direct kit. In brief, the harvested cells were fixed in 1% paraformaldehyde for 15 min on ice, washed with PBS, and then fixed again in 70% ethanol at −20° C. overnight. The cells were then incubated in DNA labeling solution (containing terminal deoxynucleotidyl transferase (TdT) enzyme, fluorescein-conjugated dUTP and reaction buffer) for 90 min at 37° C. After removing the DNA labeling solution by rinsing cells with Rinsing Buffer, the cells were incubated with the Propidium Iodide/RNase A solution, incubated for 30 min at room temperature in the dark, and then analyzed by flow cytometry within 3 h of staining.

caspase-8 = details: Jurkat T cells; for increase of caspase-8 levels over untreated cells: 8 hours
Method: (§1) J. Biol Chem 276:13322-30 with some modifications. Briefly, a prepared protein extract (20 μg) is incubated in a buffer containing 50 mM Tris/pH 8.0 along with each respective caspase substrate at 20 μM in a 96 well plate. The reaction mixture is incubated at 37° C. for 2 h. After incubation, the liberated fluorescent AMC or AFC groups are measured by a Wallac Victor 1420 Multilabel counter (Turku, Finland) with 355/460 […] and 405/535 nm filters, respectively.

caspase-9 = details: Jurkat T cells
Method: as §1

cytochrome C = details: Jurkat T cells, 50 μM, 2 to 4 hours
Method: At each time point, cells were washed twice with PBS, resuspended in a hypotonic buffer containing 20 mM HEPES (pH 7.5), 1.5 mM MgCl2, 5 mM KCl and 1 mM DTT, and incubated on ice for 10 min. The cells are dounced 30 times, and the lysate is centrifuged at 2,000×g for 10 min. The supernatant is collected and centrifuged again at the same condition. The resulting supernatant is then centrifuged at 20,500×g for 30 min, followed by collection of both the supernatant (cytosol) and pellet fractions. The pellet is washed twice with a buffer containing 210 mM mannitol, 70 mM sucrose, 5 mM Tris-HCl (pH 7.5) and 1 mM EDTA, and resuspended in the lysis buffer as the mitochondria fraction.

caspase-3 [3] = details: LNCaP cells, 48 h, 50 μM
Method: To measure cell-free caspase-3 activity, whole cell extracts (20-30 μg) from untreated or treated LNCaP cells were incubated with 20 μM of the fluorogenic substrate caspase-3/caspase-7 (Ac-DEVD-AMC) for 30 min at 37° C. in 100 μl of assay buffer (50 mM Tris, pH 8.0).

Jurkat T cells [4] = assay: Flow cytometry cell cycle distribution and sub-G1 population, Jurkat T cells; format: cell-based, human; details: 50 μM
Method: Cell Death Differ 5:1062-75. At each time point, cells are harvested, counted, and washed twice with PBS. Cells (5×10^6) are suspended in 0.5 ml PBS, fixed in 5 ml of 70% ethanol for at least 2 h at −20° C., centrifuged, resuspended again in 1 ml of propidium iodide staining solution (50 μg propidium iodide, 100 units RNase A and 1 mg glucose per ml PBS), and incubated at room temperature for 30 minutes. The cells are then analyzed with FACScan (Becton Dickinson Immunocytometry, CA), ModFit LT and WinMDI V.2.8 cell cycle analysis software (Verity Software; Topsham, Me.). The cell cycle distribution is shown as the percentage of cells containing G1, S, G2, and M DNA judged by propidium iodide staining. The apoptotic population is determined as the percentage of cells with sub-G1 (<G1) DNA content.

p38 MAP kinase = assay: p38 phosphorylation, Western blot, Jurkat T cells; format: cell-based, human
Description: It has been shown that multiple stimuli including DNA damaging agents induce apoptosis via activation of p38 MAP kinase (Kummer J L, et al., 1997, Apoptosis induced by withdrawal of trophic factors is mediated by p38 mitogen-activated protein kinase. J. Biol Chem 272:20490-4; Sanchez-Prieto R, et al., 2000, A role for the p38 mitogen-acitvated protein kinase pathway in the transcriptional activation of p53 on genotoxic stress by chemotherapeutic agents. Cancer Res 60:2464-72). […] The levels of Tyr-182 phosphorylated p38 protein were increased by 3-fold at 2 h and reached its maximum (˜9-fold) by 6 h (FIG. 8A). In has been shown that dual phosphorylation of p38 on Tyr-182 and Thr-180 activates this kinase (Raingeaud J, et al., 1995, Pro-inflammatory cytokines and environmental stress cause p38 mitogen-activated protein kinase activation by dual phosphorylation on tyrosine and threonine. J Biol Chem 270:7420-6). […] Therefore, lactam 1-induced DNA damage triggered activation of p38 before S population accumulation and apoptosis induction.

caspase-3 [5] = assay: Cell-free caspase-3 activity assay on extracts of treated Jurkat T cells; format: cell-based, human
Method: Briefly, a prepared protein extract (20 μg) is incubated in a buffer containing 50 mM Tris/pH 8.0 along with each respective caspase substrate at 20 μM in a 96 well plate. The reaction mixture is incubated at 37° C. for 2 h.
A library of β-lactam analogs was screened for their ability to induce apoptosis. The screening procedure is accomplished by treating human Jurkat T cells with each compound at 50 μM for 8 hours. This is followed by preparation of cell lysates and measurement of apoptosis-specific caspase-3 activation (by cell-free caspase-3 activity assay) and PARP cleavage (by Western blotting).

COC1C(=O)N(SC)C1c1ccccc1Cl (racemic) [lactam 1]
cell death (trypan blue) (Jurkat T cells [1]; 30 μM, 24 h): 42%
cell death (trypan blue) (Jurkat T cells [1]; 50 μM, 3 h): 11%
non-viable cell population (trypan blue) (Jurkat T cells [1]; 50 μM, 4 hours): 20%
trypan blue-positive cells (Jurkat T cells [1]; 50 μM, 6 h): 20%
non-viable cell population / cell death (trypan blue) (Jurkat T cells [1]; 50 μM, 24 h): 60% and ~52% and ~50%
loss of membrane permeability (trypan blue incorporation) (Jurkat T cells [1]; 50 μM): ~30%
loss of membrane permeability (trypan blue incorporation) (Jurkat T cells [1]; 60 μM): ~80%
loss of membrane permeability (trypan blue incorporation) (Jurkat T cells [1]; 20-40 μM): ~10%
DNA strand breaks (TUNEL) (Jurkat T cells [2]; 1 hour): did not induce DNA strand breaks
cell population positive for DNA strand breaks (TUNEL) (Jurkat T cells [2]; 2 hour): more than half of the cell population
TUNEL-positive cells (Jurkat T cells [2]; 24 h): 66%
time at which caspase-8 activity was detected (caspase-8; 50 μM): 2 h
time of maximal caspase-8 activity (caspase-8; 50 μM): 6 h
increase of caspase-8 levels over untreated cells (caspase-8; 50 μM): 5 fold
increase of caspase-8 levels over untreated cells (caspase-8; 30 to 40 μM): 2 fold
time at which caspase-9 activity is first detected (caspase-9; 50 μM): 4 h
caspase-9 activity (caspase-9; 8 hours, higher concentrations of lactam 1): Higher levels
levels of cytosolic cytochrome C (cytochrome C): significantly increased
levels of mitochondrial cytochrome C (cytochrome C): decreased
increase in caspase-3 activity over control (caspase-3 [3]): 2.5 fold
apoptotic sub-G1 cell population (Jurkat T cells [4]; 2 to 4 hours): 2%
increase in S phase population (Jurkat T cells [4]; 2 to 4 hours): 2-3%
increase in S phase population (Jurkat T cells [4]; 6 to 12 hours): up to 13%
sub-G1 population (Jurkat T cells [4]; 6 to 12 hours): 5-16%
increase in S phase population (Jurkat T cells [4]; 5 hours): 21%
sub-G1 apoptotic population (Jurkat T cells [4]; 5 hours): 14%
sub-G1 population (Jurkat T cells [4]; 24 h): 30%
increase in S population (Jurkat T cells [4]; 24 hour): 20%
increase of Tyr-182 phosphorylated p38 protein (p38 MAP kinase; 50 μM, 2 h): 3 fold
increase of Tyr-182 phosphorylated p38 protein (maximum) (p38 MAP kinase; 50 μM, 6 h): ~9 fold
levels of total p38 protein (p38 MAP kinase; 50 μM, up to 12 hours): remained relatively unchanged
normalized increase in phosphorylation of p38 over control (p38 MAP kinase; FIG. 8D): 5.9 fold
time at which cell-free caspase-3 activity was first observed (caspase-3 [5]; 50 μM): 4 h
caspase-3 activation (caspase-3 [5]; 50 μM, 8 hours): greatest potency
increase of caspase-3 levels over untreated cells (caspase-3 [5]; 8 hours, 20 μM): 2 fold
increase of caspase-3 levels over untreated cells (caspase-3 [5]; 8 hours, 30 μM): 3 fold
increase of caspase-3 levels over untreated cells (caspase-3 [5]; 8 hours, 40 μM): 5 fold
increase of caspase-3 levels over untreated cells (caspase-3 [5]; 8 hours, 50 μM): 11 fold
